From article PMC5622368, “Redundancy between nucleases required for homologous recombination promotes PARP inhibitor resistance in the eukaryotic model organism Dictyostelium” (Nucleic Acids Research, 2017)

Target: T1, Adprt2 (Dictyostelium discoideum, UniProt Q8I7C6)
T1 construct: recombinant His-tagged, expressed and purified from bacteria
T1 sequence (Q8I7C6 1-700): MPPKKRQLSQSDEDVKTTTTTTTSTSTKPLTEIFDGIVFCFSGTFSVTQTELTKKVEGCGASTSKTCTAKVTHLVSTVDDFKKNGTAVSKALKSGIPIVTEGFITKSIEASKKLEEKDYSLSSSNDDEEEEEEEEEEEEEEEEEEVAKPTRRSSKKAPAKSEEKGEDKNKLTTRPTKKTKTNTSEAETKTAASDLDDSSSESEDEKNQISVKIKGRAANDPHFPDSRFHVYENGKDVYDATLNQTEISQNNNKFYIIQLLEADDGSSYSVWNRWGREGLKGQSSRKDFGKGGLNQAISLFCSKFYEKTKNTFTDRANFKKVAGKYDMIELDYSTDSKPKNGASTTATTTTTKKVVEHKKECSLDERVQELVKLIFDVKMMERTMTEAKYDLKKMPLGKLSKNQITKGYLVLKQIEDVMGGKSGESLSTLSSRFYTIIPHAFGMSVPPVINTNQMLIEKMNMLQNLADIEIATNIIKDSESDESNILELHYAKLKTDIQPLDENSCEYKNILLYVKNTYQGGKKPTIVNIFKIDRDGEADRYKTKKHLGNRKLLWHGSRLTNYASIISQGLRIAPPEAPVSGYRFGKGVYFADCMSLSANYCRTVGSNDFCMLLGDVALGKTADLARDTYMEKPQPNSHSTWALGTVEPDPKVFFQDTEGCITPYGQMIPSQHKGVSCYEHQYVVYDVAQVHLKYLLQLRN
Experiment: auto-ADP-ribosylation, […]-NAD+, SDS-PAGE and phosphorimager
Type: biochemical
Details: room temperature

[1] = 75 uM NAD+, 100 nM 32P-NAD+, 1 uM enzyme, Tris-HCl pH 8, 2 mM MgCl2, sheared salmon sperm DNA, 30 min

SMILES	auto-ADP-ribosylation, 32P-NAD+, SDS-PAGE and phosphorimager (75 uM NAD+ plus 100 nM 32P-NAD+ (labelled compound), pH 8, 2 mM MgCl2, sheared salmon sperm DNA)	auto-ADP-ribosylation, 32P-NAD+, SDS-PAGE and phosphorimager [1]
NC(=O)c1ccc[n+]([C@@H]2O[C@H](COP(=O)(O)OP(=O)(O)OC[C@H]3O[C@@H](n4cnc5c(N)ncnc54)[C@H](O)[C@@H]3O)[C@@H](O)[C@H]2O)c1 [NAD+]	ADP-ribosylated species that co-migrates with recombinant Adprt1a or Adprt2 in our assays	–
Cc1nc2c(O)cccc2c(=O)[nH]1 [NU1025]	–	these agents inhibit auto-ribosylation of the SSB-responsive ART Adprt2
O=C(c1cc(Cc2n[nH]c(=O)c3ccccc23)ccc1F)N1CCN(C(=O)C2CC2)CC1 [olaparib]	–	olaparib and rucaparib are more effective at inhibiting Adprt1a than Adprt2
CNCc1ccc(-c2[nH]c3cc(F)cc4c3c2CCNC4=O)cc1 [rucaparib]	–	olaparib and rucaparib are more effective at inhibiting Adprt1a than Adprt2
